Molecular target: T1, human S1P1 receptor (Homo sapiens, UniProt P21453)
T1 construct: expressed in transfected cells; membranes were used
Test: GTP γ35S binding assay for S1P1 activity
Assay type: biochemical
Conditions: membranes of cells stably expressing the S1P1 receptor, agonist potency
Protocol: Compounds were synthesized and tested for S1P1 activity using the GTP γ^35S binding assay. These compounds may be assessed for their ability to activate or block activation of the human S1P1 receptor in cells stably expressing the S1P1 receptor.
GTP γ^355 binding was measured in the medium containing (mM) HEPES 25, pH 7.4, MgCl2 10, NaCl 100, dithiothreitol 0.5, digitonin 0.003%, 0.2 nM GTP γ^35 S, and 5 μg membrane protein in a volume of 150 μl. Test compounds were included in the concentration range from 0.08 to 5,000 nM unless indicated otherwise. Membranes were incubated with 100 μM 5′ adenylylimidodiphosphate for 30 min, and subsequently with 10 μM GDP for 10 min on ice. Drug solutions and membrane were mixed, and then reactions were initiated by adding GTP γ^35S and continued for 30 min at 25° C. Reaction mixtures were filtered over Whatman GF/B filters under vacuum, and washed three times with 3 mL of ice-cold buffer (HEPES 25, pH7.4, MgCl2 10 and NaCl 100). Filters were dried and mixed with scintillant, and counted for ^35S activity using a β-counter. Agonist-induced GTP γ^35S binding was obtained by subtracting that in the absence of agonist. Binding data were analyzed using a non-linear regression method. In case of antagonist assay, the reaction mixture contained 10 nM S1P in the presence of test antagonist at concentrations ranging from 0.08 to 5000 nM.

T1 sequence (P21453 whole entry): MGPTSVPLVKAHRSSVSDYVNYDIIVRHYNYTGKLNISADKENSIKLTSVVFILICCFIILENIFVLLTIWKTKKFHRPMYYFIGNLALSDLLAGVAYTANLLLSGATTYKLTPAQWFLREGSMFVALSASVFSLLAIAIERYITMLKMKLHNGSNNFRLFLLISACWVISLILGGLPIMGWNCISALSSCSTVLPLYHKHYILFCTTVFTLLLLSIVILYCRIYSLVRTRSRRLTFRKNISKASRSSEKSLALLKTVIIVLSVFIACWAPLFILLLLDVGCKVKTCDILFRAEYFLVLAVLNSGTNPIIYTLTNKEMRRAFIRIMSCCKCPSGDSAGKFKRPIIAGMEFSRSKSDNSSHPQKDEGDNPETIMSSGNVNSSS

Q: How did the EC50 turn out when `Cc1nn(C(=O)CCc2ccc(CNCCC(=O)O)cc2)c2c1C1C(C2)C1(C)C` (stereo not shown) [Compound 1, 3-({4-[3-oxo-3-(3,4,4-trimethyl-3b,4,4a,5-tetrahydro-1H-cyclopropa[3,4]cyclopenta[1,2-c]pyrazol-1-yl)propyl]benzyl}amino)propanoic acid] was run?
A: 262 nM

Source: patent publication US9108993B2, “Pyrazole derivatives as sphingosine 1-phosphate (S1P) receptor modulators” (Allergan, Inc., priority 2013, dated 2015)
